Key:
[1] = target: T1, recombinant RIPK2 kinase (Homo sapiens, UniProt O43353); assay: RIPK2 ADPGlo in vitro kinase assay; assay type: biochemical; details: average ± SD of at least three titrations, read-out: IC50, In vitro kinase, RIPK2 ADPGIo
T1 construct: made in house
Source text: The BIR2 domains of XIAP and cIAP1 were cloned into the pGEX‐6P1 vector and were expressed in E. coli (BL21) cells as a fusion protein with N‐terminal 6xHis (XIAP BIR2 only) and GST tags. Protein expression was induced with IPTG, and cells were lysed using BugBuster protein extraction reagent (#70921, Merck Millipore) according to manufacturer's instructions. Proteins were purified with the FPLC protein purification system ÄKTA PrimePlus (GE Healthcare Life Sciences) using HisTrap FF column purification followed by gel filtration (HiLoad 26/600 Superdex 75 pg (GE Healthcare Life Sciences)). Collected fractions were stored at −80°C and used for probing of peptide array membranes. Expression and purification of recombinant RIPK1‐3 was performed as previously described (Canning et al, 2015; Najjar et al, 2015). RIPK1‐3 ADPGlo kinase assays using 20 ng/well protein were performed for 2 h at room temperature also as previously described (Canning et al, 2015; Najjar et al, 2015).

[2] = test system: RAW264.7 cells; assay: TNF ELISA, MDP-stimulated RAW264.7 cells; assay type: cell-based; details: Mus musculus, MDP 10 μg/ml, 24 h, read-out: RAW264.7 TNF release inhibition Est. IC50
Procedure: Figure 4 Cellular and in vivo characterization of novel RIPK2 inhibitors on inflammatory signaling • A, B ELISA measurement of TNF release from RAW264.7 cells treated with MDP (10 μg/ml, 24 h) and CSLP compounds or RIPK2 inhibitor WEHI‐345 as indicated. […] After 4 h, blood was collected by cardiac puncture and circulating levels of TNF were analyzed by ELISA. Data information: Data represent the mean ± SEM of three independent experiments. **P < 0.01, n.s., not significant. Two‐tailed unpaired Student's t‐test was used to determine statistical significance. See also Fig EV3. TEXT PRINTED IN THE PICTURE: (B) CSLP37: RAW264.7 TNF release inhibition Est. IC50 (nM): 12.6; RAW264.7 TNF release inhibition St. Err.: ±1.7 | (B) CSLP43: RAW264.7 TNF release inhibition Est. IC50 (nM): 1.2; RAW264.7 TNF release inhibition St. Err.: ±0.2 | (B) CSLP48: RAW264.7 TNF release inhibition Est. IC50 (nM): NI; RAW264.7 TNF release inhibition St. Err.: ±0.2 | (B) CSLP55: RAW264.7 TNF release inhibition Est. IC50 (nM): 143.0; RAW264.7 TNF release inhibition St. Err.: ±27.1 | (B) WEHI-345: RAW264.7 TNF release inhibition Est.
Cayman Chemical Company, Ann Arbor, MI), GSK583 (#HY-100339, MedChem Express, South Brunswick, NJ), WEHI-345 (MedKoo Biosciences, Morrisville, NC), Compound A (CpA, a kind gift from TetraLogic Pharmaceuticals, Malvern, PA). Generation of the CSLP compound series is described in Suebsuwong et al. 2018 (manuscript in preparation). […]
RAW264.7 cells were seeded into 12 well plates at a density of 1.5x10^5 cells/well in 1 ml of media.
Inhibitors were diluted and added in 1 μl DMSO 15 min prior to the addition of 10 μg/ml MDP or 10 ng/ml E. coli LPS for 24 h. For TNF measurements, 100 μl of undiluted media (MDP) or 5-fold diluted media was analyzed using Duo-Set anti-mouse TNF ELISA kit (R&D Systems, Minneapolis, MN).
Values of media-only wells were subtracted and %inhibition for each compound concentration relative to the DMSO/MDP (or LPS)-treated controls were calculated. Inhibition values + StDev were fitted by non-linear regression using Prism software (GraphPad) to calculate IC50 values. […]

[3] = target: T2, NanoLuc-RIPK2 (Homo sapiens, UniProt O43353); assay: nanoBRET cellular RIPK2 residence time assay in HEKBlue cells; assay type: binding; details: t1/2 for probe to engage RIPK2 after washout of inhibitor
T2 construct: host or cells: hNOD2-HEKBlue cells
T2 sequence (O43353 whole entry): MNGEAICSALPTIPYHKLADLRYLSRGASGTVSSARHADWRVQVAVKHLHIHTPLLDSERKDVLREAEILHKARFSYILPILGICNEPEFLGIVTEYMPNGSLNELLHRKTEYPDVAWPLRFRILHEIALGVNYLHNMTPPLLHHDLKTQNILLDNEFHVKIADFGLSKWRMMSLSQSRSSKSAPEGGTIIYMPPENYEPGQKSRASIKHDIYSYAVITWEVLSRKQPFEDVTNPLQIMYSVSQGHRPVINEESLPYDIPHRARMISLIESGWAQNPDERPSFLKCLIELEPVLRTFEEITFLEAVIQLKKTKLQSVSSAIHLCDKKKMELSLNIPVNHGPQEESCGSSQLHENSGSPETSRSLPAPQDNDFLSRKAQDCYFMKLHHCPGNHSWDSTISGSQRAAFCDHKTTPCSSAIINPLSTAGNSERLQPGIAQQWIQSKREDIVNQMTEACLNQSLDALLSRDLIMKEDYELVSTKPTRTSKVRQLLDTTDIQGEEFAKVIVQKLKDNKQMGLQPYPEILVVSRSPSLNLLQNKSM

[4] = test system: U2OS/NOD2 cells; assay: Intracellular flow cytometry of CXCL8 after L18-MDP; assay type: cell-based, human; details: L18-MDP 200 ng/ml, 4 h; for inhibition of NOD2 signaling (CXCL8) in cells expressing RIPK2 T95W: U2OS/NOD2 RIPK2 KO cells reconstituted with T95W gatekeeper mutant; for L18-MDP-induced CXCL8 production: U2OS/NOD2 cells
Procedure: Purified material and lysates were analyzed by immunoblotting. […] Numbering below schematic refers to amino acid residues in human RIPK2 and indicate domain boundaries. […] Data information: Data in (A, B, D, H) represent the mean ± SEM of 2–4 independent experiments, each performed in duplicate. […] Two‐way ANOVA was used to determine statistical significance. See also Fig EV1.Source data are available online for this figure.
Dark gray represents areas occupied by RIPK2; white areas indicate empty spaces in CSLP binding pocket. […] Dotted black box indicates region shown for models with CSLP37 and CSLP43. • Molecular docking model of RIPK2 kinase domain in complex with CSLP43 (green) based on RIPK2/CSLP18 structure from (D). […] Two‐way ANOVA was used to determine statistical significance. See also Fig EV2.
GST-BIR2-XIAP as indicated. Intensity quantification of SPOTs was performed using ImageJ software
Dual luciferase reporter assay
Intracellular flow cytometry of CXCL8
for cell death) or vehicle for 24h. Viability was determined using the CellTiter-Glo® luminescent cell
together with Transfection Carrier DNA (Promega).
After addition of Nano-Glo

[5] = target: T2, NanoLuc-RIPK2; assay: nanoBRET cellular RIPK2 target engagement assay in HEKBlue cells; details: average ± SD of at least three titrations, read-out: IC50, Cellular activity, nanoBRET RIPK2 binding
[6] = test system: RIPK2 ubiquitination in U2OS/NOD2 and THP-1 cells; assay: Purification of Ub-conjugates (TUBE pulldown), RIPK2 ubiquitination; assay type: cell-based, human; details: U2OS/NOD2 or THP-1 cells, L18-MDP 200 ng/ml, 1 h
Procedure: For co‐immunoprecipitation of HA‐XIAP with RIPK2, transfected and treated cells were lysed in TBS buffer containing 0.5% NP‐40, cOmplete and PhosSTOP inhibitors (Roche) and the lysate was cleared by centrifugation. The lysates were incubated with anti‐HA‐agarose overnight, washed 3× with lysis buffer, and analyzed by immunoblotting. For GST pulldown experiments, U2OS/NOD2 cells were lysed in TBS lysis buffer containing 0.5% NP‐40, cOmplete and PhosSTOP inhibitors (Roche). Cleared lysates were pretreated with kinase inhibitors or DMSO and incubated with GST‐XIAP‐BIR2 bound to Glutathione Sepharose at 4°C overnight. Bound material was washed 3× with lysis buffer or PBS, eluted with 15 mM Glutathione in PBS, and analyzed by immunoblotting. […] The bound material was eluted and analyzed as described above. […]
PBS, eluted with 15 mM Glutathione in PBS and analyzed by immunoblotting. […]

T1 sequence (O43353 whole entry): as above

SMILES | IC50 [1] [nM] | IC50 [2] [nM] | residence time [3] [min] | IC50 [5] [nM] | inhibition of NOD2 signaling (CXCL8) in cells expressing RIPK2 T95W [4] | L18-MDP-induced CXCL8 production [4] | RIPK2 ubiquitination after L18-MDP [6]
CCCS(=O)(=O)Nc1cc(-c2cc(-c3ccc(N4CCNCC4)cc3)cnc2N)cc(OC)c1OC [CSLP43] | 19.9 ± 0.8 | 1.2 | 107 | 10.1 ± 3.8 | no longer observed | potent suppression | inhibited RIPK2 ubiquitination
COc1cc(-c2cc(-c3ccc(N4CCNCC4)cc3)cnc2N)cc(F)c1OC [CSLP55] | 39.1 ± 3.9 | 143 | 6.8 | 195 ± 47.1 | not negatively impacted |  | little or no effect
Cc1ccc(-c2nn(C(C)(C)CNC(=O)c3ccncc3)c3ncnc(N)c23)cc1 [WEHI‐345, reference compound] | 37.3 ± 1.3 | 123 | 7.5 | 521 ± 172 |  |  | 

The next lines start with results.

IC50 [1] [nM] | IC50 [2] [nM] | residence time [3] [min] | IC50 [5] [nM] | SMILES | inhibition of NOD2 signaling (CXCL8) in cells expressing RIPK2 T95W [4] | L18-MDP-induced CXCL8 production [4] | RIPK2 ubiquitination after L18-MDP [6]
16.3 ± 4.6 | 12.6 | 27.1 | 36.3 ± 20.2 | CCCS(=O)(=O)Nc1cc(-c2cc(-c3ccc(N4CCNCC4)cc3)cnc2N)cc(F)c1OC [CSLP37] | no longer observed | potent suppression | inhibited RIPK2 ubiquitination
53.5 ± 5.7 | > 1000 | 127 | 1230 | CCCS(=O)(=O)Nc1cc(-c2cc(-c3ccc(N4CCNCC4)cc3)cnc2N)ccc1O [CSLP48] | not negatively impacted |  | little or no effect
